# Laboratory results taken from a melting point compilation (Tetko et al.).
row,melting point [°C],Structure (SMILES)
1,198,CCOC(=O)C1=C(N)n2nc(C(F)(F)F)nc2NC1c1ccc(Cl)cc1 (centres undefined)
2,76 to 78,O=C(C=Cc1ccccc1)c1cccs1
3,139,O=C(O)c1cc(Cl)nnc1Cl
4,125 to 126,Nc1cscc1S(=O)(=O)c1ccccc1
5,121 to 125,O=C(O)C(O)Cc1ccccc1 (centres undefined)
6,211,O=C(Nc1ccccc1)c1cc(Cl)ccc1O
7,135 to 137,Nc1ccccc1SCCS(=O)(=O)c1ccc(Cl)cc1
8,43,OCc1c(F)cccc1Cl
9,238,Cn1c(=O)c(C2=NNC(=O)C2=CC=Cc2ccccc2)c(O)c2ccccc21
10,110 to 111,CSc1ncccc1-c1nc(CCl)no1
11,140 to 141,Cc1nc(-c2ccc(N)cc2)cs1
12,84,Cc1sc(-c2ccncc2)nc1-c1ccccc1
13,42 to 46,Cc1oc(-c2ccccc2)nc1CN
14,168,NC(=O)c1cc(C(=O)CN(Cc2ccccc2)Cc2ccccc2)ccc1O
15,103,CC(=O)N(c1ccccc1)c1ccccc1
16,42 to 43.5,O=Cc1cccc2ccsc12
17,148 to 150,CSc1nc(N)c(C(=O)c2ccc(Cl)cc2)s1
18,214,Cn1c(C(C#N)c2ncccc2[N+](=O)[O-])nc2ccccc21 (centres undefined)
19,158,O=C(Nc1ccccc1)N(C(=O)C1Cc2ccccc21)c1ccccc1 (centres undefined)
20,111,Cc1ccc(OC(=O)C(C)(c2ccccc2)c2ccccc2)cc1
21,188,O=C(Nc1ccccc1)c1cc([N+](=O)[O-])cc(S(=O)(=O)Nc2ccccc2)c1
22,116,CCCCC(C(=O)O)C(=O)N(Nc1ccccc1)c1ccccc1 (centres undefined)
23,115,COc1ccc2cc(C(O)C(C)O)ccc2c1 (centres undefined)
24,195,NC(=O)c1cnc2ccccc2n1
25,133,CCN(CC)Cc1c(N)c2ccccc2oc1=O
26,209 to 210,CCOC(=O)/C=C/c1ccc2ccc(=O)[nH]c2c1
27,182 to 185,CC(=O)N1CCc2ccc(N)cc21

row,melting point [°C],Structure (SMILES)
1,158,Nc1cccc([N+](=O)[O-])c1N
2,173 to 176,Cc1onc(-c2c(Cl)cccc2Cl)c1C(N)=S
3,64,c1ccc(Cc2cc3ccccc3cn2)cc1
4,172 to 174,Cn1c2ccccc2c2cc([N+](=O)[O-])ccc21
5,300,Oc1ccnc(S)n1
6,200,O=C(O)c1ccc(-c2ccco2)nc1
7,148,CCOC(=O)C(CCc1ccccc1)NC1CCc2ccccc2N(CC(=O)O)C1=O (centres undefined)
8,89,Nc1cccc(-c2ccsc2)c1
9,115 to 117,NC(CCN(Cc1ccco1)S(=O)(=O)c1ccc(Cl)cc1)=NO
10,216,O=C(O)c1c(-c2ccccc2)nnc2ccccc12
11,72,CCOc1cc(C(=S)N2CCCCC2)ccc1OCc1ccccc1
12,206,CCOC(=O)C1=C(C)NC(=O)NC1c1ccco1 (centres undefined)
13,147,O=c1c2ccccc2cc2c3ccccc3ccn12
14,209,O=C(O)C#Cc1cccc(C#CC(=O)O)c1
15,171 to 173,CCCc1c(C)nc(NC(=O)NS(=O)(=O)c2cccs2)nc1Cl
16,150,O=C(O)C(=O)Nc1ccccc1
17,187 to 190,COc1cccc(OC)c1C(=O)O
18,70,Oc1cccc2c1CCCC2
19,72,OCc1ccccc1-c1ccco1
20,176,CC(=O)Nc1cc([N+](=O)[O-])ccc1Nc1ccc(C)cc1
21,218 to 220,Cc1n[nH]c2c(=O)n(Cc3ccc(Cl)cc3)c(C)nc12
22,76.5 to 78,OCc1cccc2ccsc12
23,84,O=Cc1cc(F)ccc1O
24,310 to 320,NC(=O)c1sc2nnccc2c1N
25,89.5,COc1ccc(C(C)=O)cc1O
26,96,CN(O)C(=O)Cc1ccc(OCc2ccccc2)cc1
27,136 to 137,NC(=S)c1ccc(C(F)(F)F)cc1

# The remaining lines, values behind:
row,Structure (SMILES),melting point [°C]
1,O=C1CNC(=S)N1,230
2,NC(=O)CCCCC1CCSS1 (centres undefined),128
3,CC(C)CCCC(C)CCCC(C)CCCCC(C)CCCC(C)CCCC(C)C (centres undefined),-38
4,Cc1ccc([N+](=O)[O-])c(N)c1C,117 to 122
5,COc1ccccc1C1(C)CCc2oc3ccc(Br)cc3c2-c2oc(C)cc21 (centres undefined),209
6,C/C(=N\c1ccccc1C)c1c(O)c2ccccc2n(-c2ccccc2)c1=O,140
7,CCC1(C2=CCCCCC2)C(=O)NC(=O)NC1=O,174
8,OCC1OC(O)C(O)C(O)C1O (centres undefined),170
9,COC(=O)c1sccc1S(=O)(=O)Cl,62 to 66
10,OCc1ccc(CN2CCOCC2)cc1,94
11,c1ccc(N=NNc2ccccc2)cc1,98
12,Cc1ccc(-c2ccc(/C=C3\C=C(CC(C)C)OC3=O)o2)cc1,78
13,CC1(C)O[C@@H](CP(c2ccccc2)c2ccccc2)[C@@H](CP(c2ccccc2)c2ccccc2)O1,86 to 88
14,CCOC(=O)C(F)(F)C(F)(F)F,75.5
15,[O-][P+](O)(O)CCN(CP(c1ccccc1)c1ccccc1)CP(c1ccccc1)c1ccccc1,147
16,CC(=O)OC1CC2C(C)C(=O)C3(C(OC(C)=O)CC4C(C)(C)CCC(OC(C)=O)C4(C=O)C13)C2OC(C)=O (centres undefined),250 to 252
17,CCOc1ccc(-c2nnc3n2NC(c2ccc(N(C)C)cc2)S3)cc1 (centres undefined),137
18,CN(C)c1ccc(C=C2C(=O)NC(=O)NC2=O)cc1,245
19,[O-][N+](=Nc1ccccc1)c1ccc(N=Nc2ccc([N+]([O-])=Nc3ccccc3)cc2)cc1,138 to 139
20,CC(C)(C)OC(=O)n1cc(C(=O)O)c2cc(Br)ccc21,206 to 209
21,Nc1cc(O)c(Cl)cc1Cl,133 to 137
22,Nc1nnc(C2CC2)[nH]1,128 to 130
23,CCCCCCCCCCCCCCCC(CCCC)c1ccccc1 (centres undefined),30.2
24,O=C(OC(=O)c1ccc(C(F)(F)F)cc1)c1ccc(C(F)(F)F)cc1,130

row,Structure (SMILES),melting point [°C]
1,COc1nn(CSP(=S)(OC)OC)c(=O)s1,39.5
2,CC1CCC2(NC1)OC1CC3C4CCC5CC(O)CCC5(C)C4CCC3(C)C1C2C (centres undefined),210
3,C1C2CC3CC1CC(SSC14CC5CC(CC(C5)C1)C4)(C2)C3,225 to 228
4,NS(=O)(=O)c1cc(Cl)sc1Cl,131 to 133
5,CCn1c2c(c3cc(OC)ccc31)CCc1cc(OC)ccc1-2,145 to 147
6,CC(=O)N(CC(C)C(=O)O)c1c(I)cc(I)c(N)c1I (centres undefined),224
7,Cc1c(O)c(C)c(CCl)c(C)c1CCl,135 to 140
8,COc1cc(F)c(F)cc1C#N,99
9,Ic1ccc(OC2CCOCC2)cc1,88.5 to 89.5
10,N#CC1(O)C(C2COC3(CCCCC3)O2)OC2OC3(CCCCC3)OC21 (centres undefined),107 to 113
11,Oc1ccc2c(c1)C13CCCCC1C(C2)N(CC1CC1)CC3 (centres undefined),188
12,Nc1ccc2c(c1)C(=O)c1ccc(N)cc1C2=O,325
13,NCCCOCCCN,151
14,O=Cc1ccc(-c2cc(C(F)(F)F)cc(C(F)(F)F)c2)o1,109 to 110
15,COc1ccc(OC)c2c(=O)c(=O)c12,191
16,O=C(O)CCC(F)(F)C(F)(F)C(F)(F)F,38 to 39
17,O=C(O)C12CC3CC(C1)CC(c1ccc([N+](=O)[O-])cc1)(C3)C2,197 to 200
18,CCN(CC)C(=O)Cl,-32
19,CC1=NNC(=O)C1(Br)Br,131
20,CC(C)(C)CC(C)(C)c1ccc(OCCO)cc1,-4
21,NS(=O)(=O)c1cc(F)c(Br)cc1F,165
22,O=C(F)c1ccccc1,-28
23,Cc1cc(C)c(C2(C)CC(C(=NO)c3cc4cc(Br)ccc4o3)C2)c(C)c1 (centres undefined),221 to 222
24,CC(=O)Nc1cc(CCNC(=O)c2ccccc2)cc(NC(C)=O)c1CCNC(=O)c1ccccc1,268

row,Structure (SMILES),melting point [°C]
1,CC(=CCNc1ncnc2nc[nH]c12)CO,208
2,CCC(F)(F)C(=O)O,8
3,COC(=O)CCC(C)C1CCC2C3CCC4CCCCC4(C)C3CC(=O)C12C (centres undefined),109
4,CCC1CN2CCc3c([nH]c4cccc(OC)c34)C2CC1C(=COC)C(=O)OC (centres undefined),104
5,CCCCOCCOCCOCCO,-30
6,O=c1[nH]c2ccc(S(=O)(=O)CCO)cc2o1,207 to 211
7,Cc1ccc(C(c2ccc(C)o2)c2cc(Cl)ccc2O)o1,85
8,Cc1cc(C(=O)O)c(C)n1C1CC1,178 to 185
9,c1ccc(N2CN(c3ccccc3)CN(c3ccccc3)C2)cc1,191
10,CC(=O)c1cc(F)cc(F)c1O,109 to 110
11,CCC(=O)C1CCCCC1C(C)(C)C(=O)O (centres undefined),115
12,COc1cc2c(c(OC)c1OC)-c1ccc(O)c(=O)cc1C(NC(C)=O)CC2 (centres undefined),178
13,Cc1cc(C)c(O)c(C(C)(C)C)c1,22.3
14,CC1(C)CCC(C)(C)C1,-88.4
15,CCCCCCCCCCCC(=O)Cl,-17
16,OCCSCCCCCCCCCCSCCO,69.5
17,CCOC(=O)c1[nH]c(C)c(C(=O)OCC)c1C,137
18,N#Cc1conc1N,140
19,O=c1[nH]c2ccccc2n1CCCN1CCN(C(c2ccccc2)c2ccccc2)CC1,154
20,O=[N+]([O-])c1cc([N+](=O)[O-])cc(C(F)(F)F)c1,51
21,FC(F)(F)c1ccc2c(c1)NCCC2,32
22,CCOC(=O)C1=NN(c2ccc(Cl)cc2Cl)C(C)(C(=O)OCC)C1 (centres undefined),51
